Results taken from patent publication US8927689B2, “Peptide nanostructures and methods of generating and using the same” (Ramot at Tel-Aviv University Ltd., priority 2002, dated 2015).
Non-standard residues stand in square brackets, D forms with d. Residues, ends and D or L forms follow the SMILES beside them.

Key:
[1] = Dissolving lyophilized peptide in 1,1,1,3,3,3-hexafluoro-2-propanol; assay type: physicochemical; details: 100 mg/ml
Procedure: Peptides (NH2-Phe-Phe-COOH, SEQ ID NO: 1) were purchased from Bachem (Budendorf, Switzerland). Freshly prepared stock solution was prepared by dissolving lyophilized form of the peptide in 1,1,1,3,3,3,-Hexafluoro-2-propanol at a concentration of 100 mg/ml. To avoid any pre-aggregation, fresh stock solution were prepared for each experiment.
Very concentrated peptide solution (i.e., 100 mg/ml) were prepared by dissolving the lyophilized peptide in 1,1,1,3,3,3 hexafluoro-2-propanol. […] Assembly into supramolecular structures was determined within minutes at the μM range, using dynamic light scattering analysis (data not shown).

Proteinase K = Proteinase K (Parengyodontium album, UniProt P06873); experiment: Incubation of peptide nanotubes with Proteinase K, electron microscopy examination; assay type: in vitro ADME; details: one hour of incubation with 0.02 mg/ml of Proteinase K; compared with before incubation
Chain of Proteinase K (P06873 106-384): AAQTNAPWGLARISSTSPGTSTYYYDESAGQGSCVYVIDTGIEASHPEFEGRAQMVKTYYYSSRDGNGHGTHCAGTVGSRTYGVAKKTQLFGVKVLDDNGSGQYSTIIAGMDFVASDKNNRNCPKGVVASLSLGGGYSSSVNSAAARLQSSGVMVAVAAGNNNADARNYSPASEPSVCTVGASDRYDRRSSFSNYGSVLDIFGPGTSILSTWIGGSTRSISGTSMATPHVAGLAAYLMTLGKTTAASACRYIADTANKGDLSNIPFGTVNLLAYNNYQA
Text: For other applications, such as the assembly of nanotube based biosensors or hollow tubing of nanofluidic circuits, enzymatically stable nanotubes are desired. To assemble such stable tubes, proteolytically stable building blocks based on the D-amino-acids analogue of the peptide, NH2-D-Phe-D-Phe-COOH (SEQ ID NO: 8) were used. This peptide formed nanotubes with the same structural features as the corresponding L-amino-acids peptide (FIG. 12a).

Row | SMILES | solubility in the organic solvent [1] | tubular structures observed by electron microscopy after proteolysis (Proteinase K)
1 | N[C@@H](Cc1ccccc1)C(=O)N[C@@H](Cc1ccccc1)C(=O)O [NH2-Phe-Phe-COOH] (H-Phe-Phe-OH) | highly soluble | no tubular structures were observed
2 | N[C@H](Cc1ccccc1)C(=O)N[C@H](Cc1ccccc1)C(=O)O [D-Phe-D-Phe, NH2-D-Phe-D-Phe-COOH] (H-[dF]-[dF]-OH) |  | no significant variation
